Assay results reported in PubChem BioAssay (NCI).
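Following 48 hours of exposure in 96-well plates, responses at five concentrations were used to interpolate endpoints linearly. GI50 = concentration required for 50% inhibition of growth. The concentration for full growth arrest is given as TGI.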

Legend:
Assay in all cases: inhibition of tumour cell growth, NCI panel, 48 h
T-47D breast = tested on: T-47D breast
TK-10 renal = tested on: TK-10 renal
SNB-75 CNS = tested on: SNB-75 CNS
SK-MEL-2 melanoma = tested on: SK-MEL-2 melanoma
NCI-H460 lung = tested on: NCI-H460 lung
MCF7 breast = tested on: MCF7 breast
HS 578T breast = tested on: HS 578T breast
HL-60(TB) leukemia = tested on: HL-60(TB) leukemia

Structure (SMILES) | TGI (T-47D breast) | TGI (TK-10 renal) | TGI (SNB-75 CNS) | TGI (SK-MEL-2 melanoma) | TGI (NCI-H460 lung) | TGI (MCF7 breast) | TGI (HS 578T breast) | TGI (HL-60(TB) leukemia) | GI50 (T-47D breast) | GI50 (SNB-75 CNS) | GI50 (SK-MEL-2 melanoma) | GI50 (NCI-H460 lung) | GI50 (MCF7 breast) | GI50 (HS 578T breast) | GI50 (HL-60(TB) leukemia) | GI50 (TK-10 renal)
NC(N)=NC(N)=Nc1ccc(C(=O)O)cc1 | > 100 µM | > 100 µM | > 100 µM | > 100 µM | > 100 µM | > 100 µM | > 100 µM | > 100 µM | – | – | – | – | – | – | – | –
COc1ccc(Nc2ncnc3ccc(-c4cncc(NS(C)(=O)=O)c4)cc23)cc1Cl | 1.61 µM | – | 6.37 µM | 2.67 µM | 17 µM | 8.01 µM | 5.18 µM | 6.72 µM | 0.177 µM | 352 nM | 1020 nM | 4.11 µM | 1630 nM | 1260 nM | 2020 nM | –
C=C(C)[C@@H]1CCc2c(O)c(O)c(=O)cc(C)c2C1 | 23.7 µM | 43.7 µM | > 83.3 µM | > 100 µM | 3.54 µM | 20.7 µM | > 100 µM | – | – | – | – | – | – | – | – | –
CCN(CC)CCCNCc1cc(-c2ccccc2)nc2cc(Cl)ccc12 | 4.73 µM | 10.2 µM | 4.34 µM | 4.55 µM | 11.2 µM | 4.06 µM | 5.29 µM | 4.19 µM | 1.7 µM | 1570 nM | 2320 nM | 3.41 µM | 1690 nM | 2010 nM | 1780 nM | 3270 nM
Cc1cc(=O)[nH]c(N/N=C/c2ccccc2O)n1 | > 100 µM | – | > 100 µM | > 100 µM | > 100 µM | > 100 µM | > 100 µM | 50.1 µM | 3.74 µM | 71500 nM | > 100000 nM | 4.72 µM | 463 nM | > 100000 nM | 4260 nM | –
Cc1nn(C)c2ncnc(N/N=C/c3cccc(O)c3O)c12 | > 100 µM | > 100 µM | 6.8 µM | > 76.3 µM | > 39.7 µM | > 100 µM | > 100 µM | 1.43 µM | 3.25 µM | 548 nM | 2980 nM | 0.431 µM | 594 nM | 2290 nM | 322 nM | 2640 nM
CC(=O)c1c[nH]c2ccc(-c3ccnc(Nc4ccc(NC(=O)C5CCCC5)c(CN5CCOCC5)c4)n3)cc12 | – | 0.406 µM | 0.042 µM | 0.0585 µM | 0.125 µM | 0.174 µM | 0.105 µM | 0.0727 µM | 0.0379 µM | – | 22.2 nM | 0.033 µM | 30.4 nM | 20.7 nM | 25.3 nM | 27.4 nM
COc1cc(F)c(F)cc1C(=O)c1cnc(NC2CCN(S(C)(=O)=O)CC2)nc1N | 23.8 µM | 19.3 µM | 10.9 µM | 12.6 µM | 24.3 µM | > 25 µM | > 21.8 µM | 10 µM | 4.58 µM | 3830 nM | 3860 nM | 1.16 µM | 760 nM | 4710 nM | 2010 nM | 2920 nM
CC(C)C[C@H](NC(=O)Cn1cccc(CNC(=O)c2ccccc2)c1=O)B(O)O | 2.82 µM | 4.75 µM | 2.33 µM | 2.79 µM | 15.8 µM | > 100 µM | – | > 100 µM | 0.335 µM | 320 nM | 384 nM | 2.65 µM | 409 nM | 335 nM | 653 nM | 550 nM
CCCCCCCCCCCNC=O | > 100 µM | > 100 µM | > 100 µM | 66.1 µM | > 100 µM | > 100 µM | > 100 µM | 39.7 µM | – | – | – | – | – | – | – | –
Cc1ccc(S(=O)(=O)n2cc([C@@]3(O)C[C@H](CSC#N)OC3=O)c3ccccc32)cc1 | 32.5 µM | 37.8 µM | 71 µM | 24.4 µM | 23.9 µM | 18.1 µM | 32.6 µM | 12.2 µM | 12.8 µM | 15500 nM | 9230 nM | 9.19 µM | 2800 nM | 8700 nM | 3500 nM | 16300 nM
COc1ccc(CSC2=C(C#N)C(=O)NC3(CCCCC3)S2)cc1 | 63.2 µM | > 100 µM | > 100 µM | > 100 µM | > 100 µM | > 100 µM | > 75.8 µM | 19 µM | – | – | – | – | – | – | – | –
COc1c(OC)c(OC)c2c(=O)cc(-c3ccc(OC(C)C)cc3)oc2c1OC | 42.5 µM | > 53.9 µM | > 49.9 µM | > 50.7 µM | > 56.6 µM | 35.8 µM | 52.5 µM | 13 µM | – | – | – | – | – | – | – | –
COc1ccc2nc(C)cc(Sc3nc4ccccc4s3)c2c1 | 11 µM | 5.47 µM | 5.12 µM | – | 5.35 µM | 11.1 µM | 3.57 µM | 2.63 µM | 0.881 µM | 885 nM | – | 1.89 µM | 1450 nM | 923 nM | 533 nM | 1400 nM
O=C1C=CC(=O)c2c1ccc1c3ccccc3n(Cc3ccccc3)c21 | 64.6 µM | 35.1 µM | > 100 µM | 99.6 µM | > 100 µM | 45.6 µM | > 100 µM | 15.3 µM | – | – | – | – | – | – | – | –
CN(C)CCN1C(=O)c2cccc3c(/C=C/CN4C(=O)c5cccc6cccc(c56)C4=O)ccc(c23)C1=O | > 100 µM | 82.8 µM | – | > 100 µM | > 100 µM | 62.4 µM | 35.7 µM | > 100 µM | > 100 µM | – | > 100000 nM | > 100 µM | 21100 nM | 13800 nM | > 100000 nM | 34700 nM
O=C(O)CSC1=NNC2(C(=O)N1)c1ccccc1-c1ccccc12 | > 10 µM | > 10 µM | > 10 µM | – | > 10 µM | > 10 µM | > 10 µM | > 10 µM | – | – | – | – | – | – | – | –
OCCCCC#Cc1ccccc1C#Cc1cccnc1 | > 100 µM | 80.6 µM | > 100 µM | > 100 µM | > 100 µM | > 100 µM | > 100 µM | 75.1 µM | 34.7 µM | 40300 nM | 87900 nM | 31.6 µM | 67500 nM | 44900 nM | 26800 nM | 26900 nM
